Reference: paper PMC10298982, “Stability Characterization of the Novel Anti-Cancer HM-10/10 HDL-Mimetic Peptide” (International Journal of Molecular Sciences, 2023)
Ends that are not written are not given here.

Legend:
[1] = Metabolic stability in cryopreserved human hepatocytes; format: in vitro ADME; settings: Human hepatocytes 0.5 million cells/mL; for CLint scaled: hepatocytes
[2] = Metabolic stability in human liver microsomes; format: in vitro ADME
[3] = Protein binding in Sprague-Dawley rat plasma (ultracentrifugation); settings: Sprague-Dawley, rat, plasma (K2EDTA), pH 7.4
[4] = test system: Sprague-Dawley rat plasma proteins; assay: as above; settings: Sprague-Dawley rat plasma (K2EDTA), 2 μM
[5] = Metabolic stability in Sprague-Dawley rat liver microsomes; format: in vitro ADME; settings: for CLint scaled: rat, microsomes, Sprague-Dawley rat liver microsomes 0.5 mg protein/mL, 2 μM
[6] = in vitro; settings: beagle, dog, plasma, pH 7.4
Experimental: The supernatant was removed and incubated at 37 °C for at least 10 min before use. The pH of each matrix was checked and adjusted to pH 7.4 using 10% phosphoric acid or 1 N sodium hydroxide as necessary.
Test and control article stock solutions were spiked (1.5 µL) into matrix (0.749 mL) to a final assay concentration of 2 µM and mixed. […] These tubes were sealed and incubated at 37 °C with shaking.
The quenched samples were mixed briefly by vortexing and stored in a −20 °C freezer.
Sample plates were stored refrigerated until analysis.
The column was set to a temperature of 55 °C. […] The instrument was equipped with an electrospray ionization source (500 °C) operated in positive-ion mode.
Peak area ratios for IS-normalized test article and control article counts were used to calculate the percent remaining relative to the time zero (T0) value. As appropriate, results were plotted and further analyzed to calculate half-life (T1/2) values.
Mean peak ratios were used to calculate the percent remaining relative to the T0 value: % Remaining at Timex = (mean peak area ratio Tx/mean peak ratio T0) × 100.

[7] = biological target: CYP2C19 (Homo sapiens, UniProt P33261); settings: microsomes
Sequence of CYP2C19 (P33261 whole entry): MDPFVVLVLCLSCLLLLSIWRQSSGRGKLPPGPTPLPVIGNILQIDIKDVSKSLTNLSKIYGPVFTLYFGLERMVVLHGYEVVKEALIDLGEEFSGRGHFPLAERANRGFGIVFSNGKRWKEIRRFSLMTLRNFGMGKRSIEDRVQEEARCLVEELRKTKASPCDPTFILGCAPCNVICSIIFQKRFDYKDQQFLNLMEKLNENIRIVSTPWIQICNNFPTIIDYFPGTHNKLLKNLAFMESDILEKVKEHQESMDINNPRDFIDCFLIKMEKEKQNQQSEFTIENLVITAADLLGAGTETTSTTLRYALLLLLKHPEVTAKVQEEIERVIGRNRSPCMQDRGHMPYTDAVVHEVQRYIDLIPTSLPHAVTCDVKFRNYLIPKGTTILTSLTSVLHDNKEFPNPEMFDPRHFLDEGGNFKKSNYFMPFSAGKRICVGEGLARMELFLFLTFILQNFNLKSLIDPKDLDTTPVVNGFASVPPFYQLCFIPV

[8] = test system: CYP2B6; assay: CYP2B6 induction (mRNA expression) in single-donor human hepatocytes; format: in vitro ADME
Experimental: RNA isolation and quantification: E-Z 96 Total RNA Kit (Omega Bio-tek, Catalog No. R1034-02) was used for RNA isolation and Quant-iT RNA assay kit (ThermoFisher, Catalog No. Q33140) was used for RNA quantification. The plates were removed from a −80 °C freezer and equilibrated to room temperature. RNA was extracted using the manufacturer’s recommended protocol. Eighty-one microliters of 100% ethanol were added into each well containing 150 µL of lysed sample to make a final ethanol concentration at 35%.
cDNA generation: For cDNA generation, a High-Capacity cDNA Reverse Transcription Kit (Applied Biosystems, Catalog No. 4319983) and QuantStudio 3 PCR system (Applied Biosystems) were used. In this step, 2X Reverse Transcription Master Mix was prepared using the contents of the kit. Then, 10 µL of total RNA was added to 10 µL of 2X Reverse Transcription Master Mix in a microplate and the plate was sealed. This plate was then run in a thermocycler to generate cDNA.
Real time PCR: SsoAdvanced Universal SYBR® Green Supermix (BIO-RAD, Catalog No. 172-5270) and the QuantStudio 3 Real-Time PCR system (Applied Biosystems) were used to perform real-time PCR on the generated cDNA. In this step, a PCR mix was prepared using PCR Supermix, SYBR® primers for the targeted genes, and nuclease-free water. Two microliters of ten-fold diluted cDNA samples (5 µL of cDNA into 45 μL of nuclease-free water) were added to 8 µL of PCR Mix in a microplate and sealed. This plate was then run through the Real-Time PCR system to generate the mRNA expression data.
• Human GAPDH • F: […] • R: […] • Human CYP1A2 • Unique Assay ID: qHsaCID0015160 • Chromosome Location: 15:75045562-75047256 • Human CYP2B6 • F: […] • R: […] • Human CYP3A4 • F: […] • R: […]

[9] = Stability in simulated intestinal fluid (SIF); format: in vitro ADME
Experimental: When developing any potentially oral-route pharmaceutical agent, the denaturing and pepsin-rich environment of the stomach must be considered. The stability of HM-10/10 was tested in simulated gastric fluid (SGF) and simulated intestinal fluid (SIF) over 120 min. […] Samples were tested at 2 μM.
For the HM-10/10 stability assay in simulated gastric and intestinal fluids, propantheline was used to confirm retention time and carbutamide was used as the internal standard for calculations.

With “LRKLRKRLLRLVGRQLEEFL [HM-10/10, LRKLRKRLLRLVGRQLEEFL]” the “% Remaining at 30 min” value ([1]; 2 μM) was 2.5%, the half-life at 2 µM ([1]; cryopreserved hepatocytes) was 5.28 min and the remaining at 0.5 h, 2 µM ([1]; human, cryopreserved hepatocytes, read-out: % Remaining at 30 min) was 2.47%. For the same sequence, the CLint scaled ([1]; human, 2 μM, read-out: CLint (L/hr/kg) (converted)) was 42.5 L/h/kg, the CLint scaled ([1]; human, 2 μM, read-out: CLint (mL/min/kg)) was 42.5 L/h/kg and the CLint scaled ([2]; Human liver microsomes 0.5 mg protein/mL, 2 μM) was 61.5 mL/min/kg. The half-life at 2 µM ([2]; pooled liver microsomes, pH 7.4, Human liver microsomes 0.5 mg protein/mL) was 20.3 min, the remaining at 2 h, 2 µM ([2]; pooled liver microsomes, pH 7.4, Human liver microsomes 0.5 mg protein/mL, read-out: % Remaining at 120 min) was 1.4% and the fraction unbound at 2.5 h, 2 µM [3] was 0.672 ± 0.094. For the same sequence, the “% Stability in Matrix (2.5 h)” value ([4]; 37 °C) was 36.6%, the “% Protein Bound Mean ± SD” value ([4]; 2.5 h at 37 °C) was 32.8 ± 9.4% and the “% Protein Free Mean ± SD” value ([4]; 2.5 h at 37 °C) was 67.2 ± 9.4%. For the same sequence, the half-life at 2 µM ([5]; pooled liver microsomes, pH 7.4, Sprague-Dawley rat liver microsomes 0.5 mg protein/mL) was 27.7 min, the remaining at 2 h, 2 µM ([5]; pooled liver microsomes, pH 7.4, Sprague-Dawley rat liver microsomes 0.5 mg protein/mL, read-out: % Remaining at 120 min) was 3.7% and the CLint scaled ([5]; read-out: CLint (L/hr/kg) (converted)) was 6.09 L/h/kg. For the same sequence, the CLint scaled ([5]; read-out: CLint (mL/min/kg)) was 6.06 L/h/kg, the half-life at 2 µM [6] was 54.6 min and the remaining at 2 h, 2 µM [6] was 24.8%. For the same sequence, the “% Inhibition at 50 µM No PI + NADPH” value [7] was −26.4%, the “% Inhibition at 50 µM No PI − NADPH” value [7] was −9.4% and the “% Inhibition at 50 µM PI + NADPH” value [7] was −6.0%. For the same sequence, the “% Inhibition at 50 µM PI − NADPH” value [7] was 19.9%, the “Comments (mRNA induction)” value ([8]; 2 µM) was “Induction Observed” and the “Fold Increase (mRNA Expression) Lot HH1086” value ([8]; 2 µM) was 2.03 fold. For the same sequence, the “Fold Increase (mRNA Expression) Lot HH1142” value ([8]; 2 µM) was 9.76 fold, the “Fold Increase (mRNA Expression) Lot HH1144” value ([8]; 2 µM) was 2.86 fold and the “Fold Increase (mRNA Expression) Mean of 3 Lots” value (from here on “Fold Increase … of 3 Lots”) ([8]; 2 µM) was 4.88 fold. For the same sequence, the “Comments (mRNA induction)” value ([8]; 10 µM) was “Induction Observed”, the “Fold Increase (mRNA Expression) Lot HH1086” value ([8]; 10 µM) was 2.54 fold and the “Fold Increase (mRNA Expression) Lot HH1142” value ([8]; 10 µM) was 7.08 fold. For the same sequence, the “Fold Increase (mRNA Expression) Lot HH1144” value ([8]; 10 µM) was 3.33 fold, the “Fold Increase … of 3 Lots” value ([8]; 10 µM) was 4.32 fold and the “Comments (mRNA induction)” value ([8]; 25 µM) was “Induction Observed”. For the same sequence, the “Fold Increase (mRNA Expression) Lot HH1086” value ([8]; 25 µM) was 1.26 fold, the “Fold Increase (mRNA Expression) Lot HH1142” value ([8]; 25 µM) was 5.04 fold and the “Fold Increase (mRNA Expression) Lot HH1144” value ([8]; 25 µM) was 1.92 fold. The “Fold Increase … of 3 Lots” value ([8]; 25 µM) was 2.74 fold, the “Compound detected after 20 min under SIF conditions” value ([9]; SIF, 2 μM, 20 min) was “no HM-10/10 could be detected” and the half-life at 2 µM ([9]; simulated intestinal fluid (SIF), SIF pH 5.5) was 2.72 min.
